Source: ChEMBL document CHEMBL3352179, “Inhibition of O-GlcNAcase (OGA): A Potential Therapeutic Target to Treat Alzheimer's Disease” (ACS Med Chem Lett, 2014)

Experiments:
[1] = target: T1, Protein O-GlcNAcase (Rattus norvegicus, UniProt Q8VIJ5); assay: Inhibition of OGA in rat B35 cells after 16 hrs; type: cell-based
T1 sequence (Q8VIJ5 whole entry): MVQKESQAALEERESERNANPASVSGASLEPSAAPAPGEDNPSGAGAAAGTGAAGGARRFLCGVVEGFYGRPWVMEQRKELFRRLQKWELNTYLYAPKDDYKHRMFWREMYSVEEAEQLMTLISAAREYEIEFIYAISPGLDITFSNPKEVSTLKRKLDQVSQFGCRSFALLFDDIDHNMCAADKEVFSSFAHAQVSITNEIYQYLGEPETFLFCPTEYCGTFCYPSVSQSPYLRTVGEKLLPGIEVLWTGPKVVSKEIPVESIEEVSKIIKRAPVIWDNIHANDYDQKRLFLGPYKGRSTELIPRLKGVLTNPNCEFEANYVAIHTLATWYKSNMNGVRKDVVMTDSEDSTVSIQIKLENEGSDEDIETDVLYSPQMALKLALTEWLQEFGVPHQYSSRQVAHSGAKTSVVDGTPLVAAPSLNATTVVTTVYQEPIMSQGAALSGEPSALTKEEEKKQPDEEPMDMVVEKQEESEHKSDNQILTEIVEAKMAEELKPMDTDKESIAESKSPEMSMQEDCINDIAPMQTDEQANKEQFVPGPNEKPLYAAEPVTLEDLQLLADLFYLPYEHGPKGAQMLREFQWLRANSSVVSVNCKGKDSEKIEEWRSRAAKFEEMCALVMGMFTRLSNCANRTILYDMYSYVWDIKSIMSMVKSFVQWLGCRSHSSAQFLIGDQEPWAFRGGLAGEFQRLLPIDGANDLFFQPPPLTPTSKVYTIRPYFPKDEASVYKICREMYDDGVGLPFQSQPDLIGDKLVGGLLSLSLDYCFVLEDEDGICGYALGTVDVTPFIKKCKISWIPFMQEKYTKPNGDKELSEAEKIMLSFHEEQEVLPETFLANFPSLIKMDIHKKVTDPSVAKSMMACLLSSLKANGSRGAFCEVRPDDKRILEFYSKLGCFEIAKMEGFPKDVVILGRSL

[2] = target: T2, Protein O-GlcNAcase (Homo sapiens, UniProt O60502); assay: Inhibition of human His-tagged OGA using fluorescein mono-beta-D-([…]) glucopyranoside as substrate after 60 mins by fluorescence assay
T2 sequence (O60502 whole entry): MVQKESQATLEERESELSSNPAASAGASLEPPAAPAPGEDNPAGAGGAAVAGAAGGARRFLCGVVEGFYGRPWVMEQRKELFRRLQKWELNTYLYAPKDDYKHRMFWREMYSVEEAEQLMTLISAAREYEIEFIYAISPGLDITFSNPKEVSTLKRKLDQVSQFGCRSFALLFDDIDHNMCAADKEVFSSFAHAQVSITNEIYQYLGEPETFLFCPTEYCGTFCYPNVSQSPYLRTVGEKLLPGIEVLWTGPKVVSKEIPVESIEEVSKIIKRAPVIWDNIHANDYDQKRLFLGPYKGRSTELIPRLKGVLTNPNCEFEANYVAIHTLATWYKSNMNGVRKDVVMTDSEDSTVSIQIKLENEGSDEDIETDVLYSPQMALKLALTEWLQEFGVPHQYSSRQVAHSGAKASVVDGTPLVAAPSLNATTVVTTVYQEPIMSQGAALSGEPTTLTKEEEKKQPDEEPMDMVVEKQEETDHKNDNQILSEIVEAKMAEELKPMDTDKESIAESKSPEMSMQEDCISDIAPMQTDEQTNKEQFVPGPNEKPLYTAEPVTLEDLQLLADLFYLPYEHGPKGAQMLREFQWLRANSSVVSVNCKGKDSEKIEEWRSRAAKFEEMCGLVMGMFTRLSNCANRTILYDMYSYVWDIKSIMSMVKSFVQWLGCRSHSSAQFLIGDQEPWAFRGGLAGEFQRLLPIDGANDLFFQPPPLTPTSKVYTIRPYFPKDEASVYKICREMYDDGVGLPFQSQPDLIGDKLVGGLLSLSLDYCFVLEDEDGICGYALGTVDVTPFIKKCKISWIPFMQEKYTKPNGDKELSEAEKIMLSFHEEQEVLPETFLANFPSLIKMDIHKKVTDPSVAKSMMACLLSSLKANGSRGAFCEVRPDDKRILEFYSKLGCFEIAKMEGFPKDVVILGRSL

EC50 [1]	IC50 [2]	Compound
200 nM	< 200 nM	CC(=O)Nc1ncc(CN2CCC(c3ccccc3)CC2)s1
< 200 nM	< 200 nM	CC(=O)Nc1ncc(CN2CCC(c3cccc(C)c3)CC2)s1
10000 nM	1000 nM	COC(=O)Nc1ncc(CN2CCC(c3ccccc3)CC2)s1
1000 nM	1000 nM	CC(=O)Nc1ncc(CN2CCC(F)(c3ccccc3)CC2)s1
